# Species on record: Rattus norvegicus
# Assay: DrugMatrix - Regimen: Daily Repeat
# Format: toxicity, organism-based, Sprague-Dawley
# Parameters: regimen Daily Repeat, gender Male, age 6-8 weeks
# Settings: in vivo, po, route oral GAVAGE, vehicle .5 % CMC; for ABSOLUTE BASOPHIL / ABSOLUTE EOSINOPHIL / ABSOLUTE LYMPHOCYTE / ABSOLUTE MONOCYTE / ABSOLUTE SEGMENTED NEUTROPHIL / BASOPHIL / EOSINOPHIL / ERYTHROCYTE COUNT / HEMATOCRIT / HEMOGLOBIN / LEUKOCYTE COUNT / LYMPHOCYTE / MEAN CORPUSCULAR HEMOGLOBIN / MEAN CORPUSCULAR HEMOGLOBIN CONCENTRATION / MEAN CORPUSCULAR VOLUME / MONOCYTE / NEUTROPHIL / NUCLEATED RED BLOOD CELLS / PLATELET COUNT: tissue Blood; for ALANINE AMINOTRANSFERASE / ALBUMIN / ALKALINE PHOSPHATASE / ASPARTATE AMINOTRANSFERASE / BLOOD UREA NITROGEN / CARBON DIOXIDE / CHLORIDE / CHOLESTEROL / CREATINE PHOSPHOKINASE / CREATININE / GLUCOSE / LACTATE DEHYDROGENASE / LIPASE / PHOSPHORUS / POTASSIUM / SODIUM / TOTAL BILIRUBIN / TOTAL PROTEIN / URIC ACID: tissue Plasma
# [1] = 10 mg/kg, 72 h, dose level Low, time 3 day
# [2] = 10 mg/kg, 120 h, dose level Low, time 5 day
# [3] = 1200 mg/kg, 72 h, dose level High, time 3 day
# [4] = 1200 mg/kg, 120 h, dose level High, time 5 day
compound,measurement,setting,value
CC(C)c1nc(CN(C)C(=O)N[C@H](C(=O)N[C@@H](Cc2ccccc2)C[C@H](O)[C@H](Cc2ccccc2)NC(=O)OCc2cncs2)C(C)C)cs1 [RITONAVIR],ABSOLUTE BASOPHIL,[1],0 CELLS/uL
same,ABSOLUTE EOSINOPHIL,[1],0 CELLS/uL
same,ABSOLUTE LYMPHOCYTE,[1],16363 CELLS/uL
same,ABSOLUTE MONOCYTE,[1],133.67 CELLS/uL
same,ABSOLUTE SEGMENTED NEUTROPHIL,[1],2103.33 CELLS/uL
same,BASOPHIL,[1],0%
same,EOSINOPHIL,[1],0%
same,ERYTHROCYTE COUNT,[1],5.55 x10E6/uL
same,HEMATOCRIT,[1],35.17%
same,HEMOGLOBIN,[1],13.33 G/DL
same,LEUKOCYTE COUNT,[1],18.6 x10E3/uL
same,LYMPHOCYTE,[1],88%
same,MEAN CORPUSCULAR HEMOGLOBIN,[1],24.03 pg
same,MEAN CORPUSCULAR HEMOGLOBIN CONCENTRATION,[1],37.93 G/DL
same,MEAN CORPUSCULAR VOLUME,[1],63.37 fL
same,MONOCYTE,[1],0.67%
same,NEUTROPHIL,[1],11.33%
same,NUCLEATED RED BLOOD CELLS,[1],0 /100WBC
same,PLATELET COUNT,[1],1318 x10E3/uL
same,ALANINE AMINOTRANSFERASE,[1],56.67 u/L
same,ALBUMIN,[1],4.1 G/DL
same,ALKALINE PHOSPHATASE,[1],325.33 u/L
same,ASPARTATE AMINOTRANSFERASE,[1],93.33 u/L
same,BLOOD UREA NITROGEN,[1],14 mg/dL
same,CARBON DIOXIDE,[1],29 mmol/L
same,CHLORIDE,[1],101 MEQ/L
same,CHOLESTEROL,[1],90.67 mg/dL
same,CREATINE PHOSPHOKINASE,[1],297.33 u/L
same,CREATININE,[1],0.23 mg/dL
same,GLUCOSE,[1],152 mg/dL
same,LACTATE DEHYDROGENASE,[1],319.33 u/L
same,LIPASE,[1],10.67 u/L
same,PHOSPHORUS,[1],12.83 mg/dL
same,POTASSIUM,[1],6.89 MEQ/L
same,SODIUM,[1],145.67 MEQ/L
same,TOTAL BILIRUBIN,[1],0.13 mg/dL
same,TOTAL PROTEIN,[1],5.77 G/DL
same,URIC ACID,[1],1.67 mg/dL
same,ABSOLUTE BASOPHIL,[2],0 CELLS/uL
same,ABSOLUTE EOSINOPHIL,[2],71.67 CELLS/uL
same,ABSOLUTE LYMPHOCYTE,[2],18278.33 CELLS/uL
same,ABSOLUTE MONOCYTE,[2],105.33 CELLS/uL
same,ABSOLUTE SEGMENTED NEUTROPHIL,[2],1678 CELLS/uL
same,BASOPHIL,[2],0%
same,EOSINOPHIL,[2],0.33%
same,ERYTHROCYTE COUNT,[2],6.19 x10E6/uL
same,HEMATOCRIT,[2],37%
same,HEMOGLOBIN,[2],13.97 G/DL
same,LEUKOCYTE COUNT,[2],20.13 x10E3/uL
same,LYMPHOCYTE,[2],90.33%
same,MEAN CORPUSCULAR HEMOGLOBIN,[2],22.63 pg
same,MEAN CORPUSCULAR HEMOGLOBIN CONCENTRATION,[2],37.73 G/DL
same,MEAN CORPUSCULAR VOLUME,[2],59.93 fL
same,MONOCYTE,[2],0.67%
same,NEUTROPHIL,[2],8.67%
same,NUCLEATED RED BLOOD CELLS,[2],0 /100WBC
same,PLATELET COUNT,[2],1433.33 x10E3/uL
same,ALANINE AMINOTRANSFERASE,[2],50.67 u/L
same,ALBUMIN,[2],4.4 G/DL
same,ALKALINE PHOSPHATASE,[2],359.67 u/L
same,ASPARTATE AMINOTRANSFERASE,[2],81.67 u/L
same,BLOOD UREA NITROGEN,[2],15.33 mg/dL
same,CARBON DIOXIDE,[2],27.67 mmol/L
same,CHLORIDE,[2],102 MEQ/L
same,CHOLESTEROL,[2],79.67 mg/dL
same,CREATINE PHOSPHOKINASE,[2],237 u/L
same,CREATININE,[2],0.21 mg/dL
same,GLUCOSE,[2],148.67 mg/dL
same,LACTATE DEHYDROGENASE,[2],188 u/L
same,LIPASE,[2],9.33 u/L
same,PHOSPHORUS,[2],13.17 mg/dL
same,POTASSIUM,[2],6.85 MEQ/L
same,SODIUM,[2],145.83 MEQ/L
same,TOTAL BILIRUBIN,[2],0.17 mg/dL
same,URIC ACID,[2],1.63 mg/dL
same,ABSOLUTE BASOPHIL,[3],0 CELLS/uL
same,ABSOLUTE EOSINOPHIL,[3],142.67 CELLS/uL
same,ABSOLUTE LYMPHOCYTE,[3],15572 CELLS/uL
same,ABSOLUTE MONOCYTE,[3],334 CELLS/uL
same,ABSOLUTE SEGMENTED NEUTROPHIL,[3],651.33 CELLS/uL
same,BASOPHIL,[3],0%
same,EOSINOPHIL,[3],0.67%
same,ERYTHROCYTE COUNT,[3],5.91 x10E6/uL
same,HEMATOCRIT,[3],36.97%
same,HEMOGLOBIN,[3],14.63 G/DL
same,LEUKOCYTE COUNT,[3],16.7 x10E3/uL
same,LYMPHOCYTE,[3],93.67%
same,MEAN CORPUSCULAR HEMOGLOBIN,[3],24.77 pg
same,MEAN CORPUSCULAR HEMOGLOBIN CONCENTRATION,[3],39.6 G/DL
same,MEAN CORPUSCULAR VOLUME,[3],62.53 fL
same,MONOCYTE,[3],2%
same,NEUTROPHIL,[3],3.67%
same,NUCLEATED RED BLOOD CELLS,[3],0 /100WBC
same,PLATELET COUNT,[3],1284 x10E3/uL
same,ALANINE AMINOTRANSFERASE,[3],50 u/L
same,ALBUMIN,[3],3.97 G/DL
same,ALKALINE PHOSPHATASE,[3],314 u/L
same,ASPARTATE AMINOTRANSFERASE,[3],75 u/L
same,BLOOD UREA NITROGEN,[3],13.67 mg/dL
same,CARBON DIOXIDE,[3],31.67 mmol/L
same,CHLORIDE,[3],100.33 MEQ/L
same,CHOLESTEROL,[3],86.67 mg/dL
same,CREATINE PHOSPHOKINASE,[3],162.33 u/L
same,CREATININE,[3],0.16 mg/dL
same,GLUCOSE,[3],153.67 mg/dL
same,LACTATE DEHYDROGENASE,[3],134.67 u/L
same,LIPASE,[3],10.33 u/L
same,PHOSPHORUS,[3],11.4 mg/dL
same,POTASSIUM,[3],5.99 MEQ/L
same,SODIUM,[3],144.87 MEQ/L
same,TOTAL BILIRUBIN,[3],0.2 mg/dL
same,TOTAL PROTEIN,[3],5.67 G/DL
same,URIC ACID,[3],1.33 mg/dL
same,ABSOLUTE BASOPHIL,[4],0 CELLS/uL
same,ABSOLUTE EOSINOPHIL,[4],0 CELLS/uL
same,ABSOLUTE LYMPHOCYTE,[4],16888.67 CELLS/uL
same,ABSOLUTE MONOCYTE,[4],206.67 CELLS/uL
same,ABSOLUTE SEGMENTED NEUTROPHIL,[4],871.33 CELLS/uL
same,BASOPHIL,[4],0%
same,EOSINOPHIL,[4],0%
same,ERYTHROCYTE COUNT,[4],6.28 x10E6/uL
same,HEMATOCRIT,[4],37.7%
same,HEMOGLOBIN,[4],14.77 G/DL
same,LEUKOCYTE COUNT,[4],17.97 x10E3/uL
same,LYMPHOCYTE,[4],94%
same,MEAN CORPUSCULAR HEMOGLOBIN,[4],23.53 pg
same,MEAN CORPUSCULAR HEMOGLOBIN CONCENTRATION,[4],39.17 G/DL
same,MEAN CORPUSCULAR VOLUME,[4],60.2 fL
same,MONOCYTE,[4],1%
same,NEUTROPHIL,[4],5%
same,NUCLEATED RED BLOOD CELLS,[4],0 /100WBC
same,PLATELET COUNT,[4],1230 x10E3/uL
same,ALANINE AMINOTRANSFERASE,[4],59.67 u/L
same,ALBUMIN,[4],4 G/DL
same,ALKALINE PHOSPHATASE,[4],219 u/L
same,ASPARTATE AMINOTRANSFERASE,[4],104.67 u/L
same,BLOOD UREA NITROGEN,[4],16 mg/dL
same,CARBON DIOXIDE,[4],22.33 mmol/L
same,CHLORIDE,[4],106 MEQ/L
same,CHOLESTEROL,[4],79 mg/dL
same,CREATINE PHOSPHOKINASE,[4],482 u/L
same,CREATININE,[4],0.24 mg/dL
same,GLUCOSE,[4],155.33 mg/dL
same,LACTATE DEHYDROGENASE,[4],180.33 u/L
same,LIPASE,[4],10.67 u/L
same,PHOSPHORUS,[4],10.5 mg/dL
same,POTASSIUM,[4],7.89 MEQ/L
same,SODIUM,[4],148.6 MEQ/L
same,TOTAL BILIRUBIN,[4],0.17 mg/dL
same,TOTAL PROTEIN,[4],6.03 G/DL
same,URIC ACID,[4],1.8 mg/dL
